Experimental data as given in patent publication US5688913A, “CS-1 peptidomimetics, compositions and methods of using the same” (Cytel Corporation, priority 1995, dated 1997).
Numbered stars: 1 amine (or outer) side, 2 acyl side, 3 side chain; on linkers, the order of the positions; unused ones are H or OH. Square brackets hold non-standard residues; d marks the D form. Peptide text beside a SMILES is read from it. * marks the point of attachment. X20 = O=C(CCCCCO[C@@H]1O[C@H](CO)[C@@H](O)[C@H](O)[C@H]1N[*:1])[*:2]; Phe(4-NO2) = N[C@@H](Cc1ccc([N+](=O)[O-])cc1)C(=O)O; Biotin = O=C1N[C@H]2[C@H](CS[C@H]2CCCCC(=O)*)N1; hPhe = N[C@@H](CCc1ccccc1)C(=O)O; Cha = N[C@@H](CC1CCCCC1)C(=O)O; Phg = N[C@H](C(=O)O)c1ccccc1; Piperidide = C1CCN(*)CC1; PhAc = O=C(Cc1ccccc1)*; Bz = O=C(c1ccccc1)*; Ahx = NCCCCCC(=O)O

Biological target: VLA-4 (Homo sapiens, UniProt P05556+P13612)
Sequence (P13612 34-1032): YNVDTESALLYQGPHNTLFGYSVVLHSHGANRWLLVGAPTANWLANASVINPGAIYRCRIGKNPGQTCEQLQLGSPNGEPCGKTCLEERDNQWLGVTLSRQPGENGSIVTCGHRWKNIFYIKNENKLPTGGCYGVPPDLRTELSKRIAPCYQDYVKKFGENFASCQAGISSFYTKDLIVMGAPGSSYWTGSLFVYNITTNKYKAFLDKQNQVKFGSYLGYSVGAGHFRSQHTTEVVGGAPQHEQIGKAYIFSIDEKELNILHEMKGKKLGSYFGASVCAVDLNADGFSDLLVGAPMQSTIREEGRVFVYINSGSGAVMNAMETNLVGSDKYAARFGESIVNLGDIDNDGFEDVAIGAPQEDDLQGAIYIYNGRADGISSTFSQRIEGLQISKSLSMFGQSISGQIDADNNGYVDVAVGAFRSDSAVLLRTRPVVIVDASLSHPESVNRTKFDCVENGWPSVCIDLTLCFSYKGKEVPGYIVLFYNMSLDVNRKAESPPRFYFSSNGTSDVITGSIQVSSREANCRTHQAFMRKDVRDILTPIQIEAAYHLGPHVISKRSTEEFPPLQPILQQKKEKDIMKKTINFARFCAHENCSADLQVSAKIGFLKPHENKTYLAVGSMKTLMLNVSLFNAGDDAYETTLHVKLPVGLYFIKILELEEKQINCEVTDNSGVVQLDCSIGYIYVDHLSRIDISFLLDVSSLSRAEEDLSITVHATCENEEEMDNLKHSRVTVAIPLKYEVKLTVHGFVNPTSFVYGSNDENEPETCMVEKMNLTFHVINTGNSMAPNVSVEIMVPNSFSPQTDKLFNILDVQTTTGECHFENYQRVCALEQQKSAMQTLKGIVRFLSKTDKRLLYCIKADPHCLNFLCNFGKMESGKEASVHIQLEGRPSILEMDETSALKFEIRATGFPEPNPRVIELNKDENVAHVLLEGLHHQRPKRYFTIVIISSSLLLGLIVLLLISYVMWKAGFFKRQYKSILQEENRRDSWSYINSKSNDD
Sequence (P05556 21-798): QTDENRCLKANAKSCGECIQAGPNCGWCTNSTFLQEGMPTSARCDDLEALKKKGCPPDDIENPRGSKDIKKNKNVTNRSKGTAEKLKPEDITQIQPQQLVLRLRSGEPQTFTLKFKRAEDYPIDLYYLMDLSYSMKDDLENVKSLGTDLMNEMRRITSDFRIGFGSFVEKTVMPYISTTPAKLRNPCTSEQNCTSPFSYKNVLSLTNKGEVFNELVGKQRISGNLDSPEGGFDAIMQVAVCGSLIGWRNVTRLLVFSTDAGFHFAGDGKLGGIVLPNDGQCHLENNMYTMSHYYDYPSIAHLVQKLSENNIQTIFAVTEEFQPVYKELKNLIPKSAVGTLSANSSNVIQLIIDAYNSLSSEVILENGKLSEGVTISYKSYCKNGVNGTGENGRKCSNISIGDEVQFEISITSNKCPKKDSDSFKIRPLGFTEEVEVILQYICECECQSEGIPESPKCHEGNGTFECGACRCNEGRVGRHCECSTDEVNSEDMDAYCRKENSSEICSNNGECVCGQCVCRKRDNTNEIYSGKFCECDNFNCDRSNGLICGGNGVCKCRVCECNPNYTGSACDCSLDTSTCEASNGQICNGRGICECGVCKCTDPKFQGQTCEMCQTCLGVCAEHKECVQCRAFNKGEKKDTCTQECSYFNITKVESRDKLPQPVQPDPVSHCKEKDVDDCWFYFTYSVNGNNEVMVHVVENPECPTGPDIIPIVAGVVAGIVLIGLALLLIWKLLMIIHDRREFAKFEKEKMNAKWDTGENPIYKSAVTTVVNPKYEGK
Experiment: cell-based
Assay type: cell-based
Set-up: host or cells: Jurkat (human T lymphoblastic line)
Settings: not given
Method: Binding inhibition is measured here as a concentration of peptide that inhibits one-half the binding between a standard number of Jurkat cells and a standard amount of CS-1 peptide bound to the surface of a microtiter plate well. Those concentrations are conveniently expressed as IC50 values, smaller numbers indicating a lower concentration required to inhibit 50 percent binding and therefore greater potency. Further specifics of this assay are provided hereinafter.
Jurkat cells (ATCC TIB 152), a human T lymphoblastic line, labeled with ^51 chromium were used to assay in vitro binding inhibition provided by various peptides discussed herein.
The plates were prepared as follows: The 25-mer CS-1 peptide (SEQ ID NO:1) dissolved at 0.5-1 μg/ml in a buffer of 0.1M NaHCO3 at pH 9.5 that also contained 10 μg/ml of bovine serum albumin (BSA) or a conjugate of the CS-1 peptide linked to ovalbumin (CS-1-OVA) dissolved at 1-2.5 μg/ml in the same buffer was used as the substrate. Each well of the microtiter plates was coated with 50 μl of substrate or buffer alone for controls. The wells were permitted to dry out completely and were then rinsed twice with PBS at pH 7.4. Non-specific binding sites of each well were then blocked using 200 μl per well of RPMI/1 percent BSA for two hours at room temperature. Both solid phase-affixed substrates provided similar results.
Jurkat cells (3-5×10^6 cells) were placed into a 15 ml Falcon™ round-bottom tube with a cap. The tube was centrifuged, and the extra medium was then removed.
Two hundred microliters of a ^51 Cr labeling solution were added to the centrifuged cells and maintained in contact with the cells for 90-120 minutes in a warm room. This procedure typically provides about 50,000-100,000 cpm/well with about 80-100 percent cell viability. Longer contact times provide a greater amount of labeling but lower cell viability.
The labeled cells are washed with (i) complete medium, (ii) 1 mM EDTA/PBS and then (iii) RPM1/1 percent BSA free of serum components. The cells are centrifuged after each washing. The cells are finally resuspended in serum-free RPMI/1 percent BSA at a concentration of 1×10^6 viable cells/ml, which provides a concentration that is diluted by one-half in the assay.
Inhibitor peptides are prepared as stock solutions at 20 mg/ml in DMSO in 1.5 ml cryogenic screwcap vials, and were stored at -70° C. Using Flow™ round-bottom or V-bottom microtiter plates, the inhibitor peptides were prepared at twice the assay concentration in RPMI/1 percent BSA at 60 μl well.
Four initial dilutions were typically used.
The ^51 Cr-labeled cells (1×10^6 cells at 60 μl/well) were then admixed with the diluted peptide solutions. The admixtures were maintained at room temperature (about 22° C.) for 30 minutes.
One hundred microliters of each inhibitor peptide/cell admixture were transferred to the substrate-coated wells. This was done in triplicate for each dilution. The resulting plates were incubated for 30 minutes at 37° C. and then washed gently three times with RPMI/1 percent BSA at 200 μl/well. Binding was observed microscopically, particularly after the second wash.
The bound cells were then lysed by the addition of a 0.5 percent solution of sodium dodecylsulfate in water at 100 μ/l well. The resulting solutions were then processed for counting and calculation of IC50 values following usual procedures. Appropriate positive and negative controls were used with each plate so that the results of separate assays could be normalized and compared.
The data of Table 1 are so normalized.

Row | RELATIVE POTENCY (relative peptide inhibition of VLA-4 binding CS-1) | SMILES
1 | 2 | CC(C)CC(C(=O)NCc1ccccc1)C(=O)N[C@@H](CC(=O)O)C(=O)N[C@@H](Cc1ccccc1)C(=O)N1CCC[C@@H]1C(N)=O (some centres unmarked)
2 | 56 | CC(C)C[C@@H](C(=O)N[C@@H](CC(=O)O)C(=O)N[C@@H](Cc1ccccc1)C(=O)N1CCC[C@@H]1C(N)=O)n1c(=O)[nH]c2ccccc2c1=O
3 | 1 | NC(=O)[C@H]1CCCN1C(=O)[C@H](Cc1ccccc1)NC(=O)[C@H](CC(=O)O)NC(=O)[C@H](CC1CCCCC1)NC(=O)[C@@H](N)Cc1ccccc1 (H-F[Cha]DF[dP]-NH2)
4 | 1 | CC[C@H](C)[C@H](N)C(=O)N[C@@H](CC1CCCCC1)C(=O)N[C@@H](CC(=O)O)C(=O)N[C@@H](Cc1ccccc1)C(=O)N1CCC[C@@H]1C(N)=O (H-I[Cha]DF[dP]-NH2)
5 | < 1 | CC[C@H](C)[C@H](N)C(=O)N[C@@H](CC1CCCCC1)C(=O)N[C@@H](CC(=O)O)C(=O)N[C@H](C(=O)N1CCC[C@@H]1C(N)=O)C(C)C (H-I[Cha]DV[dP]-NH2)
6 | 1 | CCC(C)C(N)C(=O)N[C@@H](CC(C)C)C(=O)N[C@@H](CC(=O)O)C(=O)N[C@H](C(=O)N1CCC[C@@H]1C(N)=O)C(C)C (single isomer, unassigned) [I L D V p free amine amide]
7 | 20 | CC(C)C[C@H](NC(=O)C(C)(C)C)C(=O)N[C@@H](CC(=O)O)C(=O)N[C@H](C(=O)N1CCCC1C(N)=O)C(C)C (single isomer, unassigned) [X L D V P pivaloyl amide]
8 | 150 | CC(C)C[C@H](NC(=O)[C@H](Cc1ccccc1)NC(=O)CCCCCNC(=O)CCCC[C@@H]1SC[C@@H]2NC(=O)N[C@@H]21)C(=O)N[C@@H](CC(=O)O)C(=O)N[C@@H](Cc1ccccc1)C(=O)N1CCC[C@@H]1C(N)=O [B Z F L D F p, N-(biotinoyl-ε-aminocaproyl)-Phe-Leu-Asp-Phe-D-Pro-NH2] ({Biotin-Ahx}-FLDF[dP]-NH2)
9 | 2 | CC[C@H](C)[C@H](N)C(=O)N[C@@H](CC(C)C)C(=O)N[C@@H](CC(=O)O)C(=O)N[C@@H](Cc1ccccc1)C(=O)N1CCC[C@@H]1C(N)=O [I L D F p free amine amide] (H-ILDF[dP]-NH2)

Row | SMILES | RELATIVE POTENCY (relative peptide inhibition of VLA-4 binding CS-1)
10 | CC(C)COC(=O)N[C@@H](CC(=O)O)C(=O)N[C@@H](Cc1ccccc1)C(=O)N1CCCCC1 | 0
11 | CC(C)C[C@H](NC(=O)Cc1ccc(O)c(O)c1)C(=O)N[C@@H](CC(=O)O)C(=O)N[C@@H](Cc1ccccc1)C(=O)N1CCCCC1 | 81
12 | CC(C)C[C@@H](C(=O)N[C@@H](CC(=O)O)C(=O)N[C@@H](Cc1ccccc1)C(=O)N1CCCCC1)N1C(=O)NC(c2ccccc2)C1=O (some centres unmarked) | 34
13 | CC(C)C[C@H](NC(=O)c1ccncc1)C(=O)N[C@@H](CC(=O)O)C(=O)N[C@@H](Cc1ccc(O)cc1)C(=O)N1CCCCC1 | 24
14 | CC(=O)N[C@H]1[C@H](OCCCCCC(=O)N[C@@H](Cc2ccccc2)C(=O)N[C@@H](CC(C)C)C(=O)N[C@@H](CC(=O)O)C(=O)N[C@@H](CC(C)C)C(=O)N2CCCCC2)O[C@H](CO)[C@@H](O)[C@@H]1O (Ac-[X20]FLDL-Piperidide) | 41

Same assay, conditions: normalized IC50 relative to standard peptide of SEQ ID NO:3 (=1); about one-tenth or less of the standard is assigned zero

Row | SMILES | RELATIVE POTENCY (relative peptide inhibition of VLA-4 binding CS-1)
15 | CC(C)C[C@H](NC(=O)Cc1ccccc1)C(=O)N[C@@H](CC(=O)O)C(=O)N[C@@H](Cc1ccccc1)C(=O)N1CCCC1CO (some centres unmarked) | 184
16 | CC(C)C[C@H](NC(=O)Cc1ccccc1)C(=O)N[C@@H](CC(=O)O)C(=O)N[C@@H](Cc1ccccc1)C(=O)N1CC(O)C(O)C1 (some centres unmarked) | 194
17 | CC(C)C[C@H](NC(=O)Cc1ccccc1)C(=O)N[C@@H](CC(=O)O)C(=O)N[C@@H](Cc1ccccc1)C(=O)N1CCC(O)CC1 | 603
18 | CCCCCCCCCC(=O)OC1CCN(C(=O)[C@H](Cc2ccccc2)NC(=O)[C@H](CC(=O)O)NC(=O)[C@H](CC(C)C)NC(=O)Cc2ccccc2)CC1 | 1
19 | CCCCCCCCCCCCCCCCCC(=O)OC1CCN(C(=O)[C@H](Cc2ccccc2)NC(=O)[C@H](CC(=O)O)NC(=O)[C@H](CC(C)C)NC(=O)Cc2ccccc2)CC1 | 1
20 | CC(C)C[C@H](NC(=O)Cc1ccccc1)C(=O)N[C@@H](CC(=O)O)C(=O)N[C@H]1Cc2ccccc2[C@H]2CCCCN2C1=O | 50
21 | CC(C)C[C@H](NC(=O)Cc1ccccc1)C(=O)N[C@@H](CC(=O)O)C(=O)NC1Cc2ccccc2N(CCN2CCOCC2)C1=O (some centres unmarked) | 20
22 | CC(C)C[C@H](NC(=O)Cc1ccccc1)C(=O)N[C@@H](CC(=O)O)C(=O)NC1CCCCN(CC(N)=O)C1=O (some centres unmarked) | 97
23 | CC(C)C[C@H](NC(=O)Cc1ccccc1)C(=O)N[C@@H](CC(=O)O)C(=O)NC1Cc2ccccc2N(CC(C)C)C1=O (some centres unmarked) | 6
24 | CC(C)C[C@H](NC(=O)Cc1ccccc1)C(=O)N[C@@H](CC(=O)O)C(=O)NC(Cc1ccccc1)Cc1ccccc1 | 0
25 | CC(C)C[C@H](NC(=O)Cc1ccccc1)C(=O)N[C@@H](CC(=O)O)C(=O)NCCN1CCOCC1 | 13
26 | CC(C)C[C@H](NC(=O)Cc1ccccc1)C(=O)N[C@@H](CC(=O)O)C(=O)NC1Cc2ccccc2NC1=O (some centres unmarked) | 31
27 | CC(C)C[C@H](NC(=O)Cc1ccccc1)C(=O)N[C@@H](CC(=O)O)C(=O)NC1Cc2ccccc2N(CC(N)=O)C1=O (some centres unmarked) | 45
28 | CC(C)C[C@H](NC(=O)Cc1ccccc1)C(=O)N[C@@H](CC(=O)O)C(=O)NC1CCCCNC1=O (some centres unmarked) | 27
29 | CC(C)C[C@H](NC(=O)Cc1ccccc1)C(=O)N[C@@H](CC(=O)O)C(=O)NC1Cc2ccccc2CN1 (some centres unmarked) | 3
30 | CC(C)C[C@H](NC(=O)Cc1ccccc1)C(=O)N[C@@H](CC(=O)O)C(=O)N[C@@H]1CCCCNC1=O | 17
31 | CC(C)C[C@H](NC(=O)Cc1ccccc1)C(=O)N[C@@H](CC(=O)O)C(=O)NN(Cc1ccccc1)C(=O)C1CCCC1 | 1
32 | CC(C)C[C@H](NC(=O)Cc1ccccc1)C(=O)N[C@@H](CC(=O)O)C(=O)NN(Cc1ccccc1)Cc1ccccc1 | 0
33 | CC(C)C[C@H](NC(=O)Cc1ccccc1)C(=O)N[C@@H](CC(=O)O)C(=O)NC1CCN(C2CCCCC2)C1=O (some centres unmarked) | 7
34 | NC(=O)[C@H]1CCCN1C(=O)[C@H](Cc1ccccc1)NC(=O)[C@H](CC(=O)O)NC(=O)[C@H](CC1CCCCC1)NC(=O)c1ccccc1 (Bz-[Cha]DF[dP]-NH2) | 17
35 | CC(C)[C@H](NC(=O)[C@H](CC(=O)O)NC(=O)[C@H](CC1CCCCC1)NC(=O)c1ccccc1)C(=O)N1CCC[C@@H]1C(N)=O (Bz-[Cha]DV[dP]-NH2) | 11
36 | CC(C)C[C@H](NC(=O)Cc1ccccc1)C(=O)N[C@@H](CC(=O)O)C(=O)N[C@@H](Cc1ccc([N+](=O)[O-])cc1)C(=O)N1CCC[C@@H]1C(N)=O (PhAc-LD[Phe(4-NO2)][dP]-NH2) | 40
37 | CC(C)C[C@H](NC(=O)Cc1ccccc1)C(=O)N[C@@H](CC(=O)O)C(=O)N[C@H](C(=O)N1CCC[C@@H]1C(N)=O)c1ccccc1 (PhAc-LD[Phg][dP]-NH2) | 61
38 | CC(C)C[C@H](NC(=O)Cc1ccccc1)C(=O)N[C@@H](CC(=O)O)C(=O)N[C@@H](CCc1ccccc1)C(=O)N1CCC[C@@H]1C(N)=O (PhAc-LD[hPhe][dP]-NH2) | 94
